The test system of this assay is Escherichia coli (ATCC 25922), Staphylococcus aureus (ATCC 25923), Klebsiella pneumoniae (ATCC 10031) and Pseudomonas aeruginosa (ATCC 27853). Briefly: Radial diffusion assay, four ATCC bacterial strains together. Type of assay: cell-based. The following applies: Gentamicin 5 μg. As to the method: The radial diffusion assay (RDA) was carried out as described by Andersen et al. (2010). Briefly, 30 ml of 1/10 Muller-Hinton broth (MHB) supplemented with 1% agarose and 5.0×10^5 CFU/ml S. aureus or E. coli or K. pneumoniae, P. aeruginosa cells was poured into a single-well omnitray (Nunc) and overlaid with a TSP 96-well plate. One hundred μg of each synthesized peptide was tested. The peptides were also tested against Fusarium oxysporum and Verticillium dahliae, for which ⅓ potato dextrose agarose was used. To test the synergistic effect of peptides, each peptide was mixed in equimolar concentrations. Mix1 (met1-12), Mix2 (met3, 4 and 5), Mix3 (met 8, 9 and 10), Mix 4 (met11, 12) and Mix5 (8, 9, 10, 11, 12) were prepared and tested against E. coli and S. aureus. Gentamicin and vancomycin were included as positive controls for bacteria and amphotericin B was used as the control for fungi.
By using rational design techniques, we have designed variants of peptides by incorporating or replacing various amino acids in the original peptides. Thus, we have designed and modified Chain 100, Chain 200 and Chain 300 with tryptophan (W), arginine (R) and lysine (K) at various positions to improve antimicrobial activity (FIGS. 4a-c and 5a-c). In some peptides we have also used other amino acids such as Leucine (L), Cysteine (C), Isoleucine (I), Phenylalanine (F) and Alanine (A). […]

With Gentamicin [reference compound], the “zone of inhibition, four ATCC strains” value was 22-24 mm.

Source of the values: patent US10457710B2, “Antimicrobial peptides, their variants and uses” (priority 2015, dated 2019).
